Laboratory results reported in patent US20140135319A1, “6-SUBSTITUTED IMIDAZOPYRAZINES FOR USE AS MPS-1 AND TKK INHIBITORS IN THE TREATMENT OF HYPERPROLIFERATIVE DISORDERS” (BAYER INTELLECTUAL PROPERTY GMBH, priority 2010, published 2014).

Target: T1, human kinase Mps-1 (Homo sapiens, UniProt P33981)
T1 construct: N-terminally GST-tagged human full length recombinant Mps-1 kinase; GST (N); purchased Invitrogen, Karslruhe, Germany PV4071
T1 sequence (P33981 1-857): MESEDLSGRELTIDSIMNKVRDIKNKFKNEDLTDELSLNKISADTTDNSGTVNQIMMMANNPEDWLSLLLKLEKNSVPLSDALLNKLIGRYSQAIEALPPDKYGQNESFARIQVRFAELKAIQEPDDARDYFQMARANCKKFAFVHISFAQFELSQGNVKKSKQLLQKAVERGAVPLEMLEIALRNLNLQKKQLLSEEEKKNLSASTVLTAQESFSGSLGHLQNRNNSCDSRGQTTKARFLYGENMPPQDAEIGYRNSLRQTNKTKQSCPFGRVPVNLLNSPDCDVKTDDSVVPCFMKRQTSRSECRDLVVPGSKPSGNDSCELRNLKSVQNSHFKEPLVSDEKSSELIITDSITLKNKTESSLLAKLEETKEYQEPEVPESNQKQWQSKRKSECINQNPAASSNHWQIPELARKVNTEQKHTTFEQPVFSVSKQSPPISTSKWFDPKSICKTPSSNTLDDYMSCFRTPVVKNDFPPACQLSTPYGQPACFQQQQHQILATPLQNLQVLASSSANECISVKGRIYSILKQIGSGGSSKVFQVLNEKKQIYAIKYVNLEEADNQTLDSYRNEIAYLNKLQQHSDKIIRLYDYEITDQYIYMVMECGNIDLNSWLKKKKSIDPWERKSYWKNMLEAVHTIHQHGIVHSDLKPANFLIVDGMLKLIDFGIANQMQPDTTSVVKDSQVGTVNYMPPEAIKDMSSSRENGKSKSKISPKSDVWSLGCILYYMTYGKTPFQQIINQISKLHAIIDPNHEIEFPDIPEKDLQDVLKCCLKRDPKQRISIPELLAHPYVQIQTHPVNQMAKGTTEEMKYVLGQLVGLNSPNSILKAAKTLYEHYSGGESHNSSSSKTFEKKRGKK
Test: Mps-1 kinase assay (TR-FRET)
Type: biochemical
Conditions: GST-tagged human full length recombinant Mps-1; 10 μM ATP; 1 μM peptide substrate; 60 min at 22° C.
In short: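 N-terminally GST-tagged full-length recombinant human Mps-1, about 1 nM final, phosphorylates a biotinylated peptide. Product detected by TR-FRET from Eu-anti-phospho-Ser/Thr antibody to streptavidin-XLent after 1 h at 22° C.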

With `Cn1ccc(CNc2nc(-c3cccc(CC(N)=O)c3)cn3c(-c4ccc(C(=O)NC5CC5)cc4)cnc23)n1` [Example 1-94, 4-(6-[3-(2-Amino-2-oxo-ethyl)phenyl]-8-{[(1-methyl-1H-pyrazol-3-yl)methyl]amino}imidazo[1,2-a]pyrazin-3-yl)-N-cyclopropyl benzamide] as the compound, how does the IC50 read?
The IC50 was 0.0049 µM.

For `NCCCCNc1nc(-c2cccc(CC(N)=O)c2)cn2c(-c3ccc(C(=O)NC4CC4)cc3)cnc12` [Example 1-95, 4-{8-[(4-Aminobutyl)amino]-6-[3-(2-amino-2-oxoethyl)phenyl]imidazo[1,2-a]pyrazin-3-yl}-N-cyclo-propylbenzamide], which IC50 is on record?
Its IC50 is 0.0192 µM.

For `NCCCCCNc1nc(-c2cccc(CC(N)=O)c2)cn2c(-c3ccc(C(=O)NC4CC4)cc3)cnc12` [Example 1-96, 4-{6-[3-(2-Amino-2-oxo-ethyl)phenyl]-8-[(5-amino-pentyl)amino]imidazo[1,2-a]pyrazin-3-yl}-N-cyclo-propylbenzamide], which IC50 is on record?
The IC50 was 0.0056 µM.

`Cn1nccc1-c1cn2c(-c3ccc(C(=O)NC4CC4)cc3)cnc2c(NCC(C)(C)O)n1` [Example 1-97, N-cyclopropyl-4-{8-[(2-hydroxy-2-methylpropyl)amino]-6-(1-methyl-1H-pyrazol-5-yl)imidazo[1,2-a]pyrazin-3-yl}benzamide] was tested. Which IC50 did it give?
Its IC50 is 0.0178 µM.

Which IC50 does the source give for `Cn1nccc1-c1cn2c(-c3ccc(C(=O)NC4CC4)c(Cl)c3)cnc2c(NCCCN)n1` [Example 1-98, 4-{8-[(3-Aminopropyl)amino]-6-(1-methyl-1H-pyrazol-5-yl)imidazo[1,2-a]pyrazin-3-yl}-2-chloro-N-cyclopropylbenzamide] here?
Its IC50 is 1.34 µM.

For `Cc1ccc(-c2cn3c(-c4ccc(C(=O)NC5CC5)cc4)cnc3c(NCC(C)(C)O)n2)cc1CC(N)=O` [Example 1-99, 4-{6-[3-(2-Amino-2-oxo-ethyl)-4-methylphenyl]-8-[(2-hydroxy-2-methylpropyl)amino]imidazo[1,2-a]pyrazin-3-yl}-N-cyclopropylbenzamide], which IC50 is on record?
The IC50 was 0.0161 µM.

For `COc1cc(C(=O)NC2CC2)ccc1-c1cnc2c(NCCCN)nc(-c3ccncc3)cn12` [Example 1-100, 4-{8-[(3-Aminopropyl)amino]-6-(pyridin-4-yl)imidazo [1,2-a]pyrazin-3-yl}-N-cyclopropyl-3-methoxy-benzamide], which IC50 is on record?
The IC50 was 0.309 µM.

Which IC50 does the source give for `NCCCNc1nc(-c2ccncc2)cn2c(-c3ccc(C(=O)NC4CC4)c(Cl)c3)cnc12` [Example 1-101, 4-{8-[(3-Aminopropyl)amino]-6-(pyridin-4-yl)imidazo [1,2-a]pyrazin-3-yl}-2-chloro-N-cyclopropyl-benzamide] here?
Its IC50 is 0.361 µM.

For `COc1cc(C(=O)NC2CC2)ccc1-c1cnc2c(NCCCN)nc(-c3ccnn3C)cn12` [Example 1-102, 4-{8-[(3-Aminopropyl)amino]-6-(1-methyl-1H-pyrazol-5-yl)imidazo[1,2-a]pyrazin-3-yl}-N-cyclopropyl-3-methoxybenzamide], which IC50 is on record?
Its IC50 is 0.531 µM.

Which IC50 does the source give for `Cc1cc(-c2cnc3c(NCCC(F)(F)F)nc(-c4ccncc4)cn23)ccc1C(=O)NC1CC1` [Example 1-103, N-cyclopropyl-2-methyl-4-{6-(pyridin-4-yl)-8-[(3,3,3-trifluoropropyl)amino]imidazo[1,2-a]pyrazin-3-yl}benzamide] here?
The IC50 was 0.0013 µM.

How did the IC50 turn out when `CC(C)CNc1nc(-c2ccccc2)cn2c(-c3ccc(C(=O)NC4CC4(C)C)cc3)cnc12` (stereo not shown) [Example 2-1, N-(2,2-dimethylcyclopropyl)-4-{8-[(2-methylpropyl)amino]-6-phenylimidazo[1,2-a]pyrazin-3-yl}benzamide] was run?
Its IC50 is 0.162 µM.

Which IC50 does the source give for `CC(C)CNc1nc(-c2ccccc2)cn2c(-c3ccc(C(=O)NC4CC4F)cc3)cnc12` (stereo not shown) [Example 2-2, N-(2-fluorocyclopropyl)-4-{8-[(2-methylpropyl)amino]-6-phenylimidazo [1,2-a]pyrazin-3-yl} benzamide] here?
The IC50 was 0.0101 µM.

Which IC50 does the source give for `CC(C)CNc1nc(-c2ccccc2)cn2c(-c3ccc(C(=O)NC4(C)CC4)cc3)cnc12` [Example 2-3, N-(1-methylcyclopropyl)-4-{8-[(2-methylpropyl)amino]-6-phenylimidazo [1,2-a]pyrazin-3-yl}benzamide] here?
Its IC50 is 0.208 µM.
